For one data set, the system named is caspase 3. In words: Caspase 3 activation in neutrophils (caspACE assay system). Format: cell-based, human. The source says:
(§1) The inflammation associated with many forms of arthritis is thought to arise from the presence of large numbers of immune cells, such as neutrophils, in the synovial joints of humans. The extended inflammation associated with crystal induced arthritis arises from the interaction of neutrophils with crystals in the synovial joint. One reason the extended duration of the inflammation in this disease may be due to the inhibition of neutrophil apoptosis by crystals. This inhibition may result in the neutrophils remaining in the joint for extended periods. Compounds that overcome this crystal induced suppression of neutrophil apoptosis therefore allow the more rapid clearance of these cells from the joint with the appropriate abatement of inflammation. The process of apoptosis involves the endonuclease driven cleavage of DNA into fragments which may be visualized as a ladder of bands in an agarose gel electrophoresis experiment. Other assays that may be used include caspase 3 quantitation or measurements of cytoplasmic DNA concentration. […] Agents that inhibit caspase activation levels or reduce cytoplasmic DNA are pro-survival (potentially inflammatory) and agents that promote are pro-apoptotic and anti-inflammatory. The use of these methods and their role in neutrophil affected inflammation is described in detail in Tudan et al. J Rheumatol. 27 p 2463-72. 2000.
(§2) Methods: Agarose gel banding/laddering of 180 base pairs: Neutrophils were separated from fresh human blood by standard methods (dextran sedimentation and ficoll paque centrifugation) and suspended in buffer at a concentration of 1×10^6 cells/ml. The cells were then incubated with crystals of calcium pyrophosphate dihydrate (CPPD) for 1 hours at 37° C. The cells were then incubated with or without camptothecin (0.1 uM) for 4 hours at 37° C. Neutrophil aliquots (1×10^6 cells) from different conditions were resuspended in 480 μl of lysis buffer (0.6% SDS, 10 mM Tris, 1 mM EDTA (pH 7.0)) and after vigorous mixing were allowed to sit on ice for 20 min after addition of 120 μl of 5M NaCl. In caspase 3 and DNA fragmentation assays a milder detergent (Triton) was used to lyse only the plasma membrane of the cells so that cytoplasmic contents (caspase 3 or DNA fragments) could be assayed. Samples were sedimented at 14,000 rpm at 4° C. for 20 min. The pellet was dried and resuspended in phenol:chloroform. Four hundred fifty μl of the upper phase was added to a new tube, which was then charged with 950 μl of […] and held at −20° C. for 10 min. The DNA was sedimented at 14,000 rpm (4° C.) and carefully washed in 75% ethanol without disturbing the pellet. The DNA was dried at 37° C. and then resuspended in 20 μl sample buffer (50% TBE with 1 μl of 1 ng/ml RNase A (Pharmacia)). The samples were vortexed and allowed to stand at 37° C. for 10 min. Five μl of loading dye (20% Ficoll Paque (Pharmacia), 0.1% bromophenol blue, 0.1% xylene cyanole) was added. Electrophoresis was carried out in 2% agarose at 80 mA, and the gel was then stained with ethidium bromide (Pharmacia) and photographed under U.V. illumination.
Caspase 3 activation was assayed using a commercial kit for this enzyme (caspACE assay system, Promega Scientific) and cyotplasmic DNA was assayed using a commercial kit (Cell death detection ELISA-Boehringer—Mannheim).

In another data set the test system is surgical adhesions. Format: in vivo. As to conditions: for surgical adhesion formation, in words: drug-loaded crosslinked HA films (camptothecin 2.5%, doxorubicin 2.5%, beta-lapachone 5%, curcumin 10%); for mean surgical adhesion score: 2.5% loaded crosslinked HA film, 8 days, scale 0 (no adhesions) to 3 (inseparable without cutting), control film mean 2.33. The protocol:
The rat caecal-sidewall adhesion model was used to test efficacy of crosslinked hyaluroinc acid (HA) polymeric films loaded with one of the following compounds; camptothecin 2.5% loading (w/w to polymer), curcumin 10%, doxorubicin 2.5%, beta-lapachone at 5% or unloaded-no-drug control. Films of 2-2.5 cm^2 were prepared with each drug by the method described in example 10. ETO sterilized, and divided in half at the time of surgical implantation. Sham surgeries omitted the application of HA film as separate controls.
Sprague Dawley rats, 15 male and 15 female, weighing 250-400 g were anaesthetized with Halothane (5%) and maintained, by nose cone, on 1.5-2% Halothane. Surgeries were conducted under sterile conditions. The abdomen was shaved, scrubbed with an antiseptic wash, and opened at the linea alba with a 3 cm incision. A region of the abdominal cavity immediately opposite the large bowel was isolated with bowel clamps, and a #11 scalpel blade was used to score a section of the transversus muscle, describing a rectangle 1×1.5 cm. The muscle was stripped from the peritoneal sidewall with forceps, and minor bleeding was arrested by tamponade. The large bowel was then externalized with sterile swabs, and caecal contents evacuated into the large bowel. Both surfaces of the caecum were stroked, 45 times on each side, with a #10 scalpel blade to produce erythema and punctated bleeding. Each stroke spanned the caecal diameter (approximately 1 cm), and extended along 1.5 cm of the caecal extremity. In only one case did this abrasion procedure cause sustained bleeding requiring ligation. Following 90 blade strokes, the integrity of the tissue was confirmed, and caecum and large bowel were replaced in the pelvis.
The film was laid over the rectangular sidewall abrasion (except in the case of sham surgeries), covering the area of damaged tissue. The abraded caecum, relocated in its previous orientation, was than overlaid such that the entire sidewall wound and film were covered by it. Four tacking sutures were placed at the outer extremities of the abraded area of the caecum securing it to the intact peritoneal sidewall immediately outside the rectangular wound area. The abdomen was closed in two layers, and antibiotics administered intramuscularly before the animal regained consciousness.
. Adhesions over, and adjacent to the caecum were rated according to the following findings: 0: No adhesions connecting caecum to sidewall wound; 1: Filmy or stranded were separable by blunt dissection; 2: Cohesive adhesions attaching the caecum to the sidewall were separable by aggressive blunt dissection; 3: Adhesions inseparable without cutting, or without tearing/damaging caecum. Fractions were assigned where a variety of ratings seemed applicable.

The test system of another data set is neutrophils. The data set can be described thus: Cytoplasmic DNA fragmentation in neutrophils (Cell death detection ELISA). Type of data set: cell-based, human.
Description: as §1
as §2, with “The samples were vortexed and allowed to stand at 37° C. for 10 min. Five μl of loading dye (20% Ficoll Paque (Pharmacia), 0.1% bromophenol blue, 0.1% xylene cyanole) was added. Electrophoresis was carried out in 2% agarose at 80 mA, and the gel was then stained with ethidium bromide (Pharmacia) and photographed under U.V. illumination.” left out

Structures are written as SMILES. Where two headings read alike, the source gives them in different places.

`CC1(C)CCC2=C(O1)c1ccccc1C(=O)C2=O` [beta-lapachone]: the “caspase 3 activation in neutrophils” value in the data set with caspase 3 is listed as “induced an increase in the activation of caspase 3 levels”. For the same compound, in the data set on surgical adhesions (rat, in vivo), the “toxicity of drug-loaded hyaluronic acid films” value (“toxicity” below) is given as “did not induce any toxic side effects”.

With `COc1cc([C@@H]2c3cc4c(cc3[C@@H](O[C@@H]3O[C@@H]5CO[C@@H](C)O[C@H]5[C@H](O)[C@H]3O)[C@H]3COC(=O)[C@H]23)OCO4)cc(OC)c1O` [etoposide], in the data set with caspase 3, the “caspase 3 activation in neutrophils” value was “induced an increase in the activation of caspase 3 levels”. Also, the “cytoplasmic DNA fragments in neutrophils” value in the data set with neutrophils was “significant increase in cytoplasmic DNA”. Besides, in the data set on surgical adhesions (rats), the “surgical adhesion formation, in words” value was “inhibition of adhesion formation occurs”. Moreover, the “toxicity” value in the data set on surgical adhesions (rat, in vivo) is given as “did not induce any toxic side effects”.

In the case of `COc1cccc2c1C(=O)c1c(O)c3c(c(O)c1C2=O)C[C@@](O)(C(=O)CO)C[C@@H]3O[C@H]1C[C@H](N)[C@H](O)[C@H](C)O1` [doxorubicin], the “caspase 3 activation in neutrophils” value with caspase 3 is “induced an increase in the activation of caspase 3 levels”. The “cytoplasmic DNA fragments in neutrophils” value in the data set with neutrophils was “significant increase in cytoplasmic DNA”. Moreover, in the data set on surgical adhesions, the “mean surgical adhesion score” value is reported as 1.24. Further, the “surgical adhesion formation, in words” value is given as “inhibition of adhesion formation occurs” in the data set with surgical adhesions (rats) and “major inhibition of surgical adhesion formation” with surgical adhesions (rats, listed as dodxorubicin). Besides, in the data set with surgical adhesions (rat, in vivo), the “toxicity” value is reported as “did not induce any toxic side effects”.

As to `CC[C@@]1(O)C(=O)OCc2c1cc1n(c2=O)Cc2cc3ccccc3nc2-1` [camptothecin], in the data set with caspase 3, the “caspase 3 activation in neutrophils” value is “induced high levels of caspase 3 activation”. In addition, the “cytoplasmic DNA fragments in neutrophils” value in the data set with neutrophils was “increased the cytoplasmic levels of DNA fragments”. Also, the “mean surgical adhesion score” value in the data set with surgical adhesions was determined as 0.95. The “toxicity” value in the data set with surgical adhesions (films applied to abraded surgical site, rats) is “no associated toxicity”.
